This note sets out measurements from ChEMBL document CHEMBL5303304, “EUbOPEN Chemogenomics Library - IncuCyte” (2023).

What all share (format): toxicity, cell-based
The test system of data set [1] is Fibroblast. The experiment in a line: Incucyte cell viability with human fibroblast. The note with it: 10 µM, compound concentration 10 uM.
The test system of data set [2] is HEK-293T. The experiment in a line: Incucyte cell viability with HEK293T. The note with it: human, 10 µM, compound concentration 10 uM.
In data set [3] the test system is U2OS. The experiment in a line: Incucyte cell viability with U2OS. Conditions: human, 10 µM, compound concentration 10 uM.
Note: unitless GR value; below 1 slowed growth and below 0 cell loss.

With `CC[N+](CC)(CC)CCOc1ccc(/C=C/c2ccccc2)cc1.[I-]` [STILONIUM IODIDE], the “Growth Rate” value is recorded as 0.94 in data set [1] (0 h, replicate number 1); -1 in data set [1] (6 h, replicate number 2); 0.37 in data set [1] (12 h, replicate number 2); 0.28 in data set [1] (18 h, replicate number 1); 0.62 in data set [1] (18 h, replicate number 2); 0.58 in data set [1] (24 h, replicate number 2). Further, the “Growth Rate” value in data set [2] (0 h, replicate number 1) is on record as 1; in data set [2] (0 h, replicate number 2), 0.44; in data set [2] (6 h, replicate number 1), -0.34; in data set [2] (6 h, replicate number 2), 0; in data set [2] (12 h, replicate number 1), -0.18; in data set [2] (12 h, replicate number 2), -0.14. Also, the “Growth Rate” value was -0.14 in data set [2] (18 h, replicate number 1); -0.12 in data set [2] (18 h, replicate number 2); -0.22 in data set [2] (24 h, replicate number 1); -0.15 in data set [2] (24 h, replicate number 2); -0.67 in data set [3] (0 h, replicate number 1); -0.99 in data set [3] (0 h, replicate number 2). The “Growth Rate” value in data set [3] (12 h, replicate number 2) stood at 1; in data set [3] (18 h, replicate number 2) it was 0.93; in data set [3] (24 h, replicate number 2), 0.84.

As for `C=CC[C@@H]1/C=C(\C)C[C@H](C)C[C@H](OC)[C@H]2O[C@@](O)(C(=O)C(=O)N3CCCC[C@H]3C(=O)O[C@H](/C(C)=C/[C@@H]3CC[C@@H](O)[C@H](OC)C3)[C@H](C)[C@@H](O)CC1=O)[C@H](C)C[C@@H]2OC.O` [TACROLIMUS], the “Growth Rate” value is recorded as -0.85 in data set [1] (0 h, replicate number 2); -0.26 in data set [1] (6 h, replicate number 2); 0.85 in data set [1] (12 h, replicate number 2); 0.96 in data set [1] (18 h, replicate number 1); -0.12 in data set [2] (0 h, replicate number 2); -0.24 in data set [2] (6 h, replicate number 1). In addition, the “Growth Rate” value in data set [2] (6 h, replicate number 2) is 0.77; in data set [2] (12 h, replicate number 1) it was 0.41; in data set [2] (12 h, replicate number 2) it was 0.99; in data set [2] (18 h, replicate number 1) it was 0.78; in data set [2] (18 h, replicate number 2) it was 0.82; in data set [2] (24 h, replicate number 1), 0.87. The “Growth Rate” value is listed as 0.99 in data set [2] (24 h, replicate number 2); 0.59 in data set [3] (0 h, replicate number 1); -1 in data set [3] (0 h, replicate number 2); 0.95 in data set [3] (6 h, replicate number 1); 0.5 in data set [3] (6 h, replicate number 2); 0.75 in data set [3] (12 h, replicate number 1). The “Growth Rate” value in data set [3] (12 h, replicate number 2) is reported as 0.7; in data set [3] (18 h, replicate number 1), 0.81; in data set [3] (18 h, replicate number 2), 0.87; in data set [3] (24 h, replicate number 2) it was 0.85.

Consider `CC1(C)Cc2nc(C3CCCC3)c([C@@H](F)c3ccc(C(F)(F)F)cc3)c(C3CCCCC3)c2[C@@H](O)C1`, for which the “Growth Rate” value is -0.22 in data set [1] (0 h, replicate number 1); -0.59 in data set [1] (0 h, replicate number 2); 0.71 in data set [1] (6 h, replicate number 1); 0.46 in data set [1] (12 h, replicate number 1); 0.89 in data set [1] (12 h, replicate number 2); 0.51 in data set [1] (18 h, replicate number 1). Moreover, the “Growth Rate” value in data set [1] (18 h, replicate number 2) is 0.82; in data set [1] (24 h, replicate number 1), 0.38; in data set [1] (24 h, replicate number 2), 0.95; in data set [2] (0 h, replicate number 1), 0.94; in data set [2] (0 h, replicate number 2), -0.11; in data set [2] (6 h, replicate number 1), 0.88. In addition, the “Growth Rate” value is 0.88 in data set [2] (18 h, replicate number 1); 0.91 in data set [2] (18 h, replicate number 2); 0.83 in data set [2] (24 h, replicate number 1); 0.89 in data set [2] (24 h, replicate number 2); 0.96 in data set [3] (0 h, replicate number 2); 0.48 in data set [3] (6 h, replicate number 2). Besides, the “Growth Rate” value in data set [3] (12 h, replicate number 2) worked out at 0.54; in data set [3] (18 h, replicate number 2), 0.82; in data set [3] (24 h, replicate number 1) it was 0.87.

For the compound `CN1CC(=O)N(C)c2cnc(Nc3ccc(NC(=O)Nc4cccc(C(=O)O)c4)cc3)nc21`, the “Growth Rate” value in data set [1] (0 h, replicate number 1) is -1; in data set [1] (0 h, replicate number 2), -0.25; in data set [1] (12 h, replicate number 2), 0.81; in data set [1] (18 h, replicate number 2) it was 0.99; in data set [2] (0 h, replicate number 1) it was -1; in data set [2] (18 h, replicate number 1), 0.83. For the same compound, the “Growth Rate” value in data set [2] (24 h, replicate number 1) is listed as 0.72; in data set [3] (0 h, replicate number 1), -0.94; in data set [3] (0 h, replicate number 2) it was 0.52; in data set [3] (6 h, replicate number 1), 0.82; in data set [3] (6 h, replicate number 2), 0.73; in data set [3] (12 h, replicate number 1), 0.91. For the same compound, the “Growth Rate” value in data set [3] (12 h, replicate number 2) was 0.75; in data set [3] (18 h, replicate number 1), 0.89; in data set [3] (18 h, replicate number 2), 0.97; in data set [3] (24 h, replicate number 1), 0.95; in data set [3] (24 h, replicate number 2) it was 1.

For the compound `COc1ccccc1N1CCN(c2ncnc3c2cnn3-c2ccccc2)CC1`, the “Growth Rate” value in data set [1] (0 h, replicate number 2) is 0; in data set [1] (6 h, replicate number 1) it was -0.03; in data set [1] (12 h, replicate number 1) it was 0.42; in data set [1] (12 h, replicate number 2), 0.94; in data set [1] (18 h, replicate number 1), 0.39; in data set [1] (24 h, replicate number 1), 0.48. In addition, the “Growth Rate” value is 0.91 in data set [1] (24 h, replicate number 2); 0.67 in data set [2] (6 h, replicate number 1); 0.19 in data set [2] (6 h, replicate number 2); 0.99 in data set [2] (12 h, replicate number 1); 0.98 in data set [2] (12 h, replicate number 2); 0.75 in data set [3] (0 h, replicate number 1). Besides, the “Growth Rate” value in data set [3] (12 h, replicate number 1) was 0.47; in data set [3] (12 h, replicate number 2) it was 0.93; in data set [3] (18 h, replicate number 1), 0.13; in data set [3] (18 h, replicate number 2), 1; in data set [3] (24 h, replicate number 1), 0.25; in data set [3] (24 h, replicate number 2) it was 0.85.

With `C[C@H](c1ccnc(Nc2nc3ccc(-c4cc(N(C)C)ncn4)cc3[nH]2)c1)N1CCN(C(=O)CC(F)(F)F)CC1` [BAY-985], the “Growth Rate” value is on record as -1 in data set [1] (0 h, replicate number 2); 0.99 in data set [1] (6 h, replicate number 1); -0.72 in data set [1] (6 h, replicate number 2); -1 in data set [1] (12 h, replicate number 1); 0.04 in data set [1] (24 h, replicate number 1); 0.79 in data set [2] (0 h, replicate number 1). The “Growth Rate” value in data set [2] (0 h, replicate number 2) amounted to 0.27; in data set [2] (6 h, replicate number 1), 0.4; in data set [2] (6 h, replicate number 2) it was 0.84; in data set [2] (12 h, replicate number 2), 0.95; in data set [2] (18 h, replicate number 2) it was 0.94; in data set [2] (24 h, replicate number 2), 0.92. Moreover, the “Growth Rate” value in data set [3] (0 h, replicate number 1) is given as -0.23; in data set [3] (12 h, replicate number 2) it was 0.94.

For the compound `O=C(Nc1ccc(OC(F)(F)Cl)cc1)c1cnc(N2CC[C@@H](O)C2)c(-c2ccn[nH]2)c1` [ASCIMINIB], the “Growth Rate” value in data set [1] (0 h, replicate number 1) is recorded as -1; in data set [1] (0 h, replicate number 2), 0.89; in data set [1] (6 h, replicate number 1), 0.15; in data set [1] (6 h, replicate number 2), -0.75; in data set [1] (12 h, replicate number 1), 0.06; in data set [1] (12 h, replicate number 2), 0.12. Also, the “Growth Rate” value in data set [1] (18 h, replicate number 1) is 0.17; in data set [1] (18 h, replicate number 2), 0.46; in data set [1] (24 h, replicate number 1) it was 0.35; in data set [1] (24 h, replicate number 2), 0.63; in data set [2] (6 h, replicate number 1), -0.71; in data set [2] (6 h, replicate number 2), -0.37. The “Growth Rate” value is listed as -0.32 in data set [2] (12 h, replicate number 1); -0.17 in data set [2] (12 h, replicate number 2); -0.06 in data set [2] (18 h, replicate number 1); 0.07 in data set [2] (18 h, replicate number 2); 0.02 in data set [2] (24 h, replicate number 1); 0.19 in data set [2] (24 h, replicate number 2). The “Growth Rate” value came out at 0.44 in data set [3] (0 h, replicate number 2); 0.61 in data set [3] (12 h, replicate number 2); 0.82 in data set [3] (18 h, replicate number 2); 0.95 in data set [3] (24 h, replicate number 1).

`N[C@@H](CC(=O)O)Cn1nnc(-c2ccc(Oc3ncc(Cl)cc3F)cc2)n1`: the “Growth Rate” value in data set [1] (12 h, replicate number 2) turned out to be 0.4; in data set [1] (18 h, replicate number 2), 0.74; in data set [1] (24 h, replicate number 1), 0.95; in data set [1] (24 h, replicate number 2), 0.76; in data set [2] (0 h, replicate number 1), 0.53; in data set [2] (6 h, replicate number 1), 0.85. In addition, the “Growth Rate” value in data set [2] (6 h, replicate number 2) turned out to be 0.12; in data set [2] (12 h, replicate number 1), 0.94; in data set [2] (12 h, replicate number 2) it was 0.58; in data set [2] (18 h, replicate number 2) it was 0.72; in data set [2] (24 h, replicate number 1) it was 0.95; in data set [2] (24 h, replicate number 2), 0.83. The “Growth Rate” value in data set [3] (6 h, replicate number 1) was 0.62.

`O=C(Nc1ccnc(NC(=O)C2CC2)c1)c1c(Cl)cccc1Cl`: the “Growth Rate” value in data set [1] (0 h, replicate number 1) is -0.14; in data set [1] (0 h, replicate number 2), -0.81; in data set [2] (0 h, replicate number 1) it was -0.99; in data set [3] (6 h, replicate number 1), 0.46; in data set [3] (12 h, replicate number 1), -0.05; in data set [3] (18 h, replicate number 1) it was 0.81. Further, the “Growth Rate” value was found to be 0.93 in data set [3] (18 h, replicate number 2); 0.98 in data set [3] (24 h, replicate number 1); 0.84 in data set [3] (24 h, replicate number 2).

For `CCN1/C(=C/C(C)=O)Sc2ccc(OC(C)=O)cc21`, the “Growth Rate” value in data set [1] (0 h, replicate number 2) is listed as 0.08; in data set [1] (6 h, replicate number 2), -0.62; in data set [1] (24 h, replicate number 1) it was 0.91; in data set [2] (6 h, replicate number 1), -0.36; in data set [2] (6 h, replicate number 2), 0.16; in data set [2] (12 h, replicate number 1) it was 0.1. Further, the “Growth Rate” value in data set [2] (12 h, replicate number 2) is recorded as 0.67; in data set [2] (18 h, replicate number 1) it was 0.02; in data set [2] (18 h, replicate number 2), 0.66; in data set [2] (24 h, replicate number 1) it was 0.09; in data set [2] (24 h, replicate number 2), 0.67; in data set [3] (0 h, replicate number 1), 0.39. Further, the “Growth Rate” value in data set [3] (0 h, replicate number 2) is given as -0.86; in data set [3] (6 h, replicate number 2), 0.95; in data set [3] (12 h, replicate number 1), 0.91; in data set [3] (12 h, replicate number 2), 0.62; in data set [3] (18 h, replicate number 1), 1; in data set [3] (18 h, replicate number 2) it was 0.94. The “Growth Rate” value was 0.98 in data set [3] (24 h, replicate number 1) and 0.9 in data set [3] (24 h, replicate number 2).
